Results taken from patent publication US20060246099A1 (L'OREAL, priority 2005, published 2006).

Assays:
[1] = test system: type L calcium channels, verapamil site; experiment: Binding to type L calcium channels, [3H](-)-D888 displacement; design: species or system rat; settings: similar test, concentration of 50 μM
Description: The studies are performed using rat cerebral cortex homogenates (isolated membranes containing at their surface type L calcium channels) according to the method described by Reynolds I. J. et al., 1986, J. Pharmacol. Exp. Ther., 237, p. 731.
The experimental conditions are as follows:
D888, which is [^3H] (−)-demethoxyverapamil, serves as a radiolabelled specific ligand, and D600, which is (±)-methoxyverapamil hydrochloride, serves as a reference molecule.
The specific binding of a ligand (labelled D888) to the receptors (type L calcium channels, verapamil site) is defined as being the difference between the total binding and the non-specific binding determined in the presence of an excess of cold (non-radioactive) ligand. The results are expressed as a percentage of inhibition of the specific binding of the control in the presence of the test compound.

[2] = test system: human striated muscle cells innervated with explants of rat embryonic rachidian ganglia and spinal cord; experiment: Nerve-muscle coculture test (muscle fibre contractions); format: cell-based; settings: 60 seconds incubation
Description: The compounds of Examples 1 and 2 were tested on a model of nerve-muscle coculture, which makes it possible to recreate a motor arc by innervating human striated muscle cells with explants of rat embryonic rachidian ganglia and spinal cord.
Human muscle cells, obtained from samples of striated muscle from healthy donors, are inoculated into wells of cross section 1.8 cm^2 (24-well culture dishes). After culturing for ten days, these cells form a monolayer and fuse. At this stage, explants of embryonic spinal cord from a 13-day-old rat, containing the rachidian ganglia, are placed on the culture.
The growth of the neurites is visible beyond the spinal cord explant after one day of culture. The first contractions of the muscle fibres are observed after five to six days of coculture, and after three weeks all the muscle fibres in the region of the explants contract.
The cocultures are used after 21 days, when the muscle fibres are striated and contain mature differentiated neuromuscular junctions.
A muscle fibre showing regular contractions (at least 60 contractions per minute) is then selected from three different culture wells and the number of contractions is counted over 30 seconds. […] At the end of incubation, the number of contractions is again counted over 30 seconds. […]

[3] = test system: human striated muscle cells innervated with explants of rat embryonic rachidian ganglia and spinal cord; settings: validation of the model; cited from earlier work
[4] = in vivo; cited from earlier work

Row | Compound | inhibition of the specific binding of the control to the calcium channels [1] | % inhibition of contractions ([2]; 10 μM) | % inhibition of contractions ([2]; 100 μM) | inhibition of muscle fibre contractions [3] | anti-wrinkle activity [4]
1 | 1-(2-phenylethyl)-4-(3-phenylpropyl)-piperazine [Compound 2] | 50% | 50% | 100% | – | –
2 | CN1C(=O)CN=C(c2ccccc2)c2cc(Cl)ccc21 [diazepam] | – | – | – | inhibited muscle fibre contractions | anti-wrinkle activity has been demonstrated in vivo
